Measurements as given in US20050209278A1, “Piperidinyl- and piperazinyl-sulfonylmethyl hydroxamic acids and their use as protease inhibitors” (priority 2002, published 2005).
Counter-ions that a name gives are not always drawn. Like-named read-outs stand apart in the source and are kept apart here.

Experiments:
Assay type in all cases: biochemical
MMP-1 = target: T1, MMP-1 (Homo sapiens, UniProt P03956); test: MMP-1 inhibition (in vitro Ki)
T1 construct: made in house; host or cells: MMP-1-transfected HT-1080 cells (spent media)
T1 sequence (P03956 100-469): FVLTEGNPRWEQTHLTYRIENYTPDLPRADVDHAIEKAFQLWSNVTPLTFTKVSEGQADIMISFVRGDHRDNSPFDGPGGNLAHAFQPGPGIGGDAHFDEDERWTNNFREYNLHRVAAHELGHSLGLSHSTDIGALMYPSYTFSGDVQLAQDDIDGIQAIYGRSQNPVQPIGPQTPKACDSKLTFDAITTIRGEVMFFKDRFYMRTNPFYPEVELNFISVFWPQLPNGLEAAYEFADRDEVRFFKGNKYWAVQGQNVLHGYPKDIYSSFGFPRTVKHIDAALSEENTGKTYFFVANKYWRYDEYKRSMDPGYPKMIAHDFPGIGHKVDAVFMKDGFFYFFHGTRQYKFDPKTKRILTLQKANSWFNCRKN

MMP-2 = target: T2, MMP-2 (Homo sapiens, UniProt P08253); test: MMP-2 inhibition (in vitro Ki)
T2 construct: made in house; host or cells: MMP-2-transfected p2AHT2 cells
T2 sequence (P08253 110-660): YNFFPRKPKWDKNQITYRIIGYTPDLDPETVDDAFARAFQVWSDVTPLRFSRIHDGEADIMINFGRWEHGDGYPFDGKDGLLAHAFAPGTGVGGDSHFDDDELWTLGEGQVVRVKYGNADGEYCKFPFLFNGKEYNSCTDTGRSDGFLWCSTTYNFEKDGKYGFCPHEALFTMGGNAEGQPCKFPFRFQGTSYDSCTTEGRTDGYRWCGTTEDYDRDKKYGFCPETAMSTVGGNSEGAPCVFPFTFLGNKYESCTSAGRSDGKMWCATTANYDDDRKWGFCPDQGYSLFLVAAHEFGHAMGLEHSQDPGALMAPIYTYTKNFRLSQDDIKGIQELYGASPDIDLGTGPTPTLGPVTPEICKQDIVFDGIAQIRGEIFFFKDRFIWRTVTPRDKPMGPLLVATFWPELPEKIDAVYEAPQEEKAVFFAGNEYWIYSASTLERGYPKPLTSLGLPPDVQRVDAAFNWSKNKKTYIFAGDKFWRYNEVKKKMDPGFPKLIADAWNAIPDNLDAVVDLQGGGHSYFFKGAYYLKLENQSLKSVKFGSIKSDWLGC

MMP-9 = target: T3, MMP-9 (Homo sapiens, UniProt P14780); test: MMP-9 inhibition (in vitro Ki)
T3 construct: made in house; host or cells: MMP-9-transfected HT1080 cells (spent media)
T3 sequence (P14780 107-707 limits assumed): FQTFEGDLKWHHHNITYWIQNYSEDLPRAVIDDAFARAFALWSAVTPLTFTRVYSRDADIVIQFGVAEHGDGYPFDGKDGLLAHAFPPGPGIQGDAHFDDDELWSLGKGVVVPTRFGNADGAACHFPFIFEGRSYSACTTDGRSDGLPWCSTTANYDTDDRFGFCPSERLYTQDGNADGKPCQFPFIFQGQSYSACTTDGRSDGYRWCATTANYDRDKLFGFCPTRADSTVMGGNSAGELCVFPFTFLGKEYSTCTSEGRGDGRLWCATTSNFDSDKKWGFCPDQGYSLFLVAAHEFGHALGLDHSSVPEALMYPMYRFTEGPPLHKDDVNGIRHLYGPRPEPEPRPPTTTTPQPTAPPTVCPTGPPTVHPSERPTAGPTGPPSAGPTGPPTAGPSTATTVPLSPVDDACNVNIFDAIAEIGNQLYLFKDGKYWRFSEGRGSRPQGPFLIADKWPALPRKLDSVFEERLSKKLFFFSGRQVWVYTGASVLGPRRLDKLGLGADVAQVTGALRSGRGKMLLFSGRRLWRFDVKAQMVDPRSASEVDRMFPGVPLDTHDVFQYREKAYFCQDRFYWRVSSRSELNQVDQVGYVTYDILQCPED

MMP-13 = target: T4, MMP-13 (Homo sapiens, UniProt P45452); test: MMP-13 inhibition (in vitro Ki)
T4 construct: made in house; host or cells: baculovirus / insect cells

MMP-14 = target: T5, MMP-14 (Homo sapiens, UniProt P50281); test: MMP-14 inhibition (in vitro Ki)
T5 construct: The catalytic domain enzyme was expressed in E. coli inclusion bodies, solubilized in urea; made in house

[1] = Table 9, read-out: MMP-1 Ki (IC-50)
[2] = Table 9, read-out: MMP-2 Ki (IC-50)
[3] = Table 9, read-out: MMP-9 Ki (IC-50)
[4] = Table 9, read-out: MMP-13 Ki (IC-50)
[5] = Table 9, read-out: MMP-14 Ki (IC-50)

Row | Compound | Ki (MMP-1; Table 8, read-out: MMP-1 Ki) [nM] | Ki (MMP-2; Table 8, read-out: MMP-2 Ki) [nM] | Ki (MMP-9; Table 8, read-out: MMP-9 Ki) [nM] | Ki (MMP-13; Table 8, read-out: MMP-13 Ki) [nM] | Ki (MMP-14; Table 8, read-out: MMP-14 Ki) [nM] | Ki (MMP-1; [1]) [nM] | Ki (MMP-2; [2]) [nM] | Ki (MMP-9; [3]) [nM] | Ki (MMP-13; [4]) [nM] | Ki (MMP-14; [5]) [nM] | also measured
1 | O=C(NO)C1(S(=O)(=O)N2CCC(c3ccc(OCC(F)(F)C(F)(F)F)cn3)CC2)CCOCC1 [Example A58, N-hydroxy-4-({4-[5-(2,2,3,3,3-pentafluoropropoxy)pyridin-2-yl]piperidin-1-yl}sulfonyl)tetrahydro-2H-pyran-4-carboxamide Hydrochloride] | 1550 | 0.52 | 1.37 | 0.24 | 6230 | – | – | – | – | – | –
2 | CN(C(=O)CCCCC1CCN(S(=O)(=O)C2(C(=O)NO)CCOCC2)CC1)c1ccc(OC(F)(F)F)cc1 [Example A163] | – | – | – | – | – | 1490 | 225 | 1630 | 2.53 | > 10000 | –
3 | CCC(CC)(C(=O)NO)S(=O)(=O)N1CCC(Oc2ccc(SC(F)(F)F)cc2)CC1 [Example B2, 2-ethyl-N-hydroxy-2-[(4-{4-[(trifluoromethyl)thio]phenoxy}piperidin-1-yl)sulfonyl]butanamide] | – | – | – | – | – | – | – | – | – | – | Ki (MMP-1; Table 10, read-out: MMP-1 Ki): 2910 nM; Ki (MMP-2; Table 10, read-out: MMP-2 Ki): 1.21 nM; Ki (MMP-9; Table 10, read-out: MMP-9 Ki): 0.483 nM; Ki (MMP-13; Table 10, read-out: MMP-13 Ki): 1.07 nM; Ki (MMP-14; Table 10, read-out: MMP-14 Ki): 1540 nM
4 | O=C(CCCCC1CCN(S(=O)(=O)C2(C(=O)NO)CCOCC2)CC1)N1CCOCC1 [Example A85] | – | – | – | – | – | 3420 | 82.3 | 553 | 3 | > 10000 | –
5 | CCCOCCCCC1CCN(S(=O)(=O)C2(C(=O)NO)CCOCC2)CC1 [Example A39, 4-[4-(4-propoxy-butyl)-piperidine-1-sulfonyl]-tetrahydro-pyran-4-carboxylic Acid Hydroxyamide] | 1990 | 12.5 | 10 | 1.99 | 1410 | – | – | – | – | – | –
6 | CCOCCCCCC1CCN(S(=O)(=O)C2(C(=O)NO)CCOCC2)CC1 [Example A38, 4-[4-(5-ethoxy-pentyl)-piperidine-1-sulfonyl]-tetrahydro-pyran-4-carboxylic Acid Hydroxyamide] | 4580 | 0.72 | 2.25 | 0.52 | 1190 | – | – | – | – | – | –
7 | CC(F)(F)COc1ccc(C2CCN(S(=O)(=O)C3(C(=O)NO)CCOCC3)CC2)nc1 [Example A168] | – | – | – | – | – | 2290 | 1.7 | 1.5 | 1.72 | 8570 | –
8 | COCCC(CCOC)(C(=O)NO)S(=O)(=O)N1CCC(c2ccc(CCC(F)(F)C(F)(F)F)cn2)CC1 [Example A61, N-hydroxy-4-methoxy-2-(2-methoxyethyl)-2-({4-[5-(3,3,4,4,4-pentafluorobutyl)pyridin-2-yl]piperidin-1-yl}sulfonyl)butanamide Hydrochloride] | 3530 | 0.98 | 0.38 | 0.16 | 4170 | – | – | – | – | – | –
9 | COCCCc1ccc(C2CCN(S(=O)(=O)C3(C(=O)NO)CCOCC3)CC2)nc1 [Example A166] | – | – | – | – | – | > 10000 | 1.93 | 1.77 | 1.03 | 5060 | –
10 | O=C(NO)C1(S(=O)(=O)N2CCC(OCCCc3ccccc3)CC2)CCOCC1 [Example A36G] | > 10000 | 31.1 | 16.4 | 30.2 | 2610 | – | – | – | – | – | –
11 | CCCCCOC1CCN(S(=O)(=O)C2(C(=O)NO)CCOCC2)CC1 [Example A36A] | > 10000 | 6 | 2.65 | 9.36 | 816 | – | – | – | – | – | –
12 | O=C(NO)C1(S(=O)(=O)N2CCC(CCCOCCCC(F)(F)F)CC2)CCOCC1 [Example A36J] | > 10000 | 7.8 | 10.3 | 4.38 | 6550 | – | – | – | – | – | –
13 | CC(F)(F)Cc1ccc(C2CCN(S(=O)(=O)C3(C(=O)NO)CCOCC3)CC2)nc1 [Example A152] | – | – | – | – | – | > 10000 | 2.36 | 9.85 | 5.25 | 4330 | –
14 | O=C(NO)C1(S(=O)(=O)N2CCC(c3ccc(CCC(F)(F)C(F)(F)F)cn3)CC2)CCN(Cc2ccccc2)CC1 [Example A174] | – | – | – | – | – | > 10000 | 1.31 | 0.73 | 0.52 | 6520 | –
15 | O=C(NO)C1(S(=O)(=O)N2CCC(c3ccc(CCC(F)(F)C(F)(F)F)cn3)CC2)Cc2ccccc2C1 [Example A113] | – | – | – | – | – | 9730 | 1.28 | 0.8 | 0.34 | 4410 | –
16 | O=C(NO)C1(S(=O)(=O)N2CCC(c3ccc(CCC4CCC4)cn3)CC2)CCOCC1 [Example A120] | – | – | – | – | – | 4910 | 0.42 | 0.16 | 0.15 | 1280 | –
17 | CCN1CCC(C(=O)NO)(S(=O)(=O)N2CCC(c3ccc(CCC(F)(F)C(F)(F)F)cn3)CC2)CC1 [Example A181] | – | – | – | – | – | > 10000 | 2.36 | 1.33 | 0.61 | > 10000 | –
18 | O=C(CO)N1CCC(C(=O)NO)(S(=O)(=O)N2CCC(c3ccc(CCC(F)(F)C(F)(F)F)cn3)CC2)CC1 [Example A118] | – | – | – | – | – | 6600 | 0.56 | 0.4 | 0.18 | 3600 | –
19 | O=C(NO)C1(S(=O)(=O)N2CCC(c3ccc(CCC(F)(F)C(F)(F)F)cn3)CC2)CCN(c2ncccn2)CC1 [Example A178] | – | – | – | – | – | > 10000 | 0.881 | 0.596 | 0.437 | 1950 | –
20 | O=C(NO)C1(S(=O)(=O)N2CCC(c3cnc(CCC(F)(F)C(F)(F)F)cn3)CC2)CCOCC1 [Example A65, N-hydroxy-4-({4-[5-(3,3,4,4,4-pentafluorobutyl)pyrazin-2-yl]piperidin-1-yl}sulfonyl)tetrahydro-2H-pyran-4-carboxamide] | > 10000 | 2.15 | 0.19 | 0.47 | 3870 | – | – | – | – | – | –
21 | O=C(NO)C1(S(=O)(=O)N2CCC(c3ccc(C#CCc4ccccc4)cn3)CC2)CCOCC1 [Example A134] | – | – | – | – | – | 1250 | 0.65 | 1.25 | 0.109 | 191 | –
22 | CCCCOCCOC1CCN(S(=O)(=O)C2(C(=O)NO)CCOCC2)CC1 [Example A36H] | > 10000 | 60.1 | 45.7 | 70.5 | > 10000 | – | – | – | – | – | –
23 | CN(C(=O)CCCC1CCN(S(=O)(=O)C2(C(=O)NO)CCOCC2)CC1)c1ccccc1 [Example A143] | – | – | – | – | – | > 10000 | 686 | 389 | 50.8 | > 10000 | –
24 | C/C(COc1ccc(C2CCN(S(=O)(=O)C3(C(=O)NO)CCOCC3)CC2)nc1)=N/O [Example A169] | – | – | – | – | – | 5370 | 3.5 | 10.2 | 4.53 | 9300 | –
25 | O=C(/C=C/C=C/C1CCN(S(=O)(=O)C2(C(=O)NO)CCOCC2)CC1)N1C[C@H]2CCCC[C@H]2C1 [Example A81] | – | – | – | – | – | 4440 | 213 | 274 | 0.92 | > 10000 | –
26 | CCS(=O)(=O)c1ccc(N2CCN(S(=O)(=O)C3(C(=O)NO)CCOCC3)CC2)cc1 [Example A164] | – | – | – | – | – | > 10000 | 63 | 2970 | 42.2 | > 10000 | –
27 | CCCC(F)(F)c1ccc(C2CCN(S(=O)(=O)C3(C(=O)NO)CCOCC3)CC2)nc1 [Example A156] | – | – | – | – | – | 4550 | 3.14 | 9.5 | 1.57 | > 10000 | –
28 | O=C(NO)C1(S(=O)(=O)N2CCN(c3ccc(-c4nnn(CC5CC5)n4)cc3)CC2)CCOCC1 [Example A175] | – | – | – | – | – | 854 | 0.07 | 1.37 | 0.09 | 591 | –
